# Earlier results in patent US20180371365A1, “FABRIC SOFTENER COMPOSITIONS” (The Procter & Gamble Company, priority 2017, published 2018).
# Settings: acidifying agents for compositions having pH 3.5 or greater
row,pKa,SMILES
1,5.2,CCCCCCCCC(=O)O [nonanoic acid]
2,5.0,C=CCCCCCCCCC(=O)O [undecylenic acid]
3,5.1,CCCCCCC(=O)O [heptanoic acid]

# The next lines start with the compound.
row,SMILES,pKa
1,OCl [hypochlorous acid],7.0
2,"O=C(O)C=Cc1ccc(O)cc1 [p-coumaric acid, 4-hydroxy cinnamic acid]",4.6
3,c1c[nH]cn1 [imidazole],7.0
